Test results: article PMC5374420, “In Search of Small Molecule Inhibitors Targeting the Flexible CK2 Subunit Interface” (Pharmaceuticals, 2017)
Where a SMILES comes first, the peptide text is derived from it. Bridges are numbered along the chain shown (N, C = ends).

Tests used:
Format in all cases: cell-based
WT MCF-10A cells = experiment: Cell death / viability, LIVE&DEAD assay, WT cells
Procedure: (§1) Figure 8 Cellular effects of TAT-Pc 13. (A) MCF-10A cells were incubated with 25 µM of TAT-Pc 13 for 3 h and imaged with phase microscopy (upper panel) or with increasing concentrations of TAT-Pc 13 for 2 h and cell viability was evaluated using the LIVE&DEAD™ assay. Live cells fluoresce bright green (530 nm), whereas dead cells fluoresce red-orange (645 nm) (lower panel, scale bare: 100 µm); (B) WT (○-○) or CK2β-depleted (●-●) MCF-10A cells were incubated for 4 h with increasing concentrations of TAT-Pc 13 and cell death was evaluated using the LIVE&DEAD™ assay recording fluorescence at 645 nm. Representative data shown from two independent experiments in duplicate; (C) MCF-10A cells were pre-treated in the absence or presence of 20 µM z-VAD for 5 h and then incubated for 4 h with 25 µM random TAT-Pc 13 or TAT-Pc 13 and cell viability was evaluated as in (A) (scale bare: 100 µm); and (D) intracellular events induced by increasing concentrations of TAT-Pc 13. After 12 h of treatment, 786-O cells were lysed and analyzed by Western blot. TEXT PRINTED IN THE PICTURE: (B) TAT-Pc 13: TAT-Pc 13 (μM): 48; TAT-Pc 13 (μM): 60 DOUBTS OF THE COPYIST ABOUT THIS PICTURE: Panel B: 48 and 60 are printed in red at the x axis, where dashed lines drop from the two curves at about 50 on the Cell death (%) axis. No measure name (e.g. IC50) is printed with them.
Cells were seeded in 96-well microtiter plates at a concentration of 1 × 10^5 cells/mL and were allowed to attach for 24 h at 37 °C in 5% CO2. Cells were then exposed to different concentrations of TAT-Pc 13 for the indicated time. Cell viability was evaluated using the fluorescence-based LIVE&DEAD™ assay (Molecular Probes, Thermo Fisher Scientific, Courtaboeuf, France) according to the manufacturer. Images were taken with an Apotome-equipped Zeiss Axioimager microscope (Zeiss, Oberkochen, German) recording the fluorescence at 530 nm (Live cells) and 645 nm (dead cells) respectively using a FluoStar Optima plate reader (BMG LabTech, Ortenberg, Germany).

[1] = system: p21 Thr145 phosphorylation, survivin expression, AKT activation; experiment: Western blot of intracellular events (AKT, phospho-p21 Thr145, survivin)
Procedure: This was confirmed using the LIVE&DEAD^TM cell viability assay that provides a visual readout of cell integrity (Figure 8A lower panel). This cellular effect was also analyzed after treatment of WT or CK2β-depleted MCF-10A cells with increasing concentrations of TAT-Pc 13. TAT-Pc 13 caused a cell death in both cell types, which was already detectable at a concentration of 25 µM and became massive at 50–60 µM (Figure 8B). […] In order to investigate the intracellular events induced by TAT-Pc 13, MCF-10A cells were incubated with increasing concentrations of TAT-Pc 13 and analyzed by Western blot.
as §1, with “them. […]” for “them.”

[2] = biological target: T1, CK2α/CK2β interaction in MCF-10A cells (Homo sapiens, UniProt P68400); experiment: CK2β immunoprecipitation from treated cells, Western blot of CK2α; settings: WT MCF-10A cells, 50 µM for 2 h, compared with TAT
T1 construct: endogenous in cells; host or cells: MCF-10A (WT)
T1 sequence (P68400 whole entry): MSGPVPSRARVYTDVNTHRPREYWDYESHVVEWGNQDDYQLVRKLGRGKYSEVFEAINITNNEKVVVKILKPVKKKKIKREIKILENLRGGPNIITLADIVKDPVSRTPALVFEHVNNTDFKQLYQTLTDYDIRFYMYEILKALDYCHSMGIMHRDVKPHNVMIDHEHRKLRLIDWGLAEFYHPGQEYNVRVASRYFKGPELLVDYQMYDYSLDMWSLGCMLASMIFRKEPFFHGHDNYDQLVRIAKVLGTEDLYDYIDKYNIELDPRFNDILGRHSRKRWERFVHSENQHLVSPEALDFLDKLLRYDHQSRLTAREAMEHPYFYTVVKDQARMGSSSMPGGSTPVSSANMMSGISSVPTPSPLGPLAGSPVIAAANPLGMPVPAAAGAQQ
Procedure: To assess the cell-penetrating properties of TAT-Pc 13, we used a tetramethylrhodamine-conjugated TAT-Pc 13 analogue (TAMRA-TAT-Pc 13). The cellular uptake of this fluorescently labeled peptide was very rapid: only 2 min after incubation, the peptide was detectable in MCF-10A cells and plateauing after 5 min (Figure 7A). The impact of TAT-Pc 13 cell uptake on the expression of the CK2 subunits in WT and CK2β-depleted MCF-10A cells was evaluated by Western blot. […] We next evaluated the effect of TAT-Pc 13 on the CK2 subunit association using two independent strategies. First, CK2β was immunoprecipitated in extracts of MCF-10A cells treated with TAT or TAT-Pc 13 and the amount of CK2α recovered in the immunoprecipitates was analyzed by Western blot.
Figure 7 Uptake and cellular effects of TAT-Pc 13. (A) kinetic of TAMRA-TAT-Pc 13 uptake in MCF-10A cells; (B) WT or CK2β-depleted MCF-10A cells were incubated with 50 µM TAT or TAT-Pc 13 for 8 h and the expression of CK2 subunits was evaluated by Western blot; (C) anti-CK2β immunoprecipitates were prepared from WT MCF-10A cells incubated with 50 µM TAT or TAT-Pc 13 for 2 h. Presence of CK2 subunits in the corresponding immunoprecipitates was determined by Western blot; (D) in situ proximity ligation images of MCF-10A cells incubated with 50 µM TAT (a,b,d) or TAT-Pc 13 (c) for 6 h. […]

[3] = both WT and CK2β-depleted MCF-10A cells, 4 h

SMILES: CC[C@H](C)[C@@H]1NC(=O)[C@H](CCCCN)NC(=O)[C@H](Cc2ccccc2)NC(=O)CNC(=O)[C@H](Cc2ccc(O)cc2)NC(=O)[C@H](CC(C)C)NC(=O)[C@H](CCCNC(=N)N)NC(=O)CNC(=O)CNC(=O)[C@@H](NC(=O)[C@H](CCC(N)=O)NC(=O)[C@@H]2CCCN2C(=O)[C@@H]2CCCN2C(=O)[C@H](CCCNC(=N)N)NC(=O)[C@H](CCCNC(=N)N)NC(=O)[C@H](CCCNC(=N)N)NC(=O)[C@H](CCC(N)=O)NC(=O)[C@H](CCCNC(=N)N)NC(=O)[C@H](CCCNC(=N)N)NC(=O)[C@H](CCCCN)NC(=O)[C@H](CCCCN)NC(=O)[C@H](CCCNC(=N)N)NC(=O)CN)CCCCNC(=O)CNC(=O)CNC(=O)[C@H](Cc2c[nH]cn2)NC1=O [TAT-Pc 13] (H-GRKKRRQRRRPPQKGGRLYGFKIHGG; lactam 14-C; N-terminus assumed)
- concentration at which cell death became massive (WT MCF-10A cells; [3]): 50 to 60 µM
- concentration at which cell death was already detectable (WT MCF-10A cells; [3]): 25 µM
- cells rounded up and shrank (WT MCF-10A cells; three hours after addition, 25 µM (Figure 8A), phase microscopy): more than 50%
- EC50 ([1]; 12 h treatment, text says MCF-10A cells, Figure 8D legend says 786-O cells, read-out: EC50, phosphorylation of p21 on Thr145 and decrease of survivin expression): 15 µM
- AKT activation ([1]; increasing concentrations, 12 h): no sign of AKT activation
- CK2α recovered in CK2β immunoprecipitates [2]: significantly less CK2α
